{"source": "paper PMC7614683", "about": "“A small molecule PI3Kα activator for cardioprotection and neuroregeneration” (Nature, 2023)", "key": {"[1]": {"target": "T1, PI3Kα E545K mutant (Homo sapiens, UniProt P42336, E545K)", "T1 construct": "Full-length human p110α was expressed either in a complex with full-length human p85α (for HTS, biochemistry and HDX-MS); 6xHis tag followed by TEV protease site (N); host or cells: Sf9, baculovirus", "T1 sequence (P42336 whole entry E545K)": "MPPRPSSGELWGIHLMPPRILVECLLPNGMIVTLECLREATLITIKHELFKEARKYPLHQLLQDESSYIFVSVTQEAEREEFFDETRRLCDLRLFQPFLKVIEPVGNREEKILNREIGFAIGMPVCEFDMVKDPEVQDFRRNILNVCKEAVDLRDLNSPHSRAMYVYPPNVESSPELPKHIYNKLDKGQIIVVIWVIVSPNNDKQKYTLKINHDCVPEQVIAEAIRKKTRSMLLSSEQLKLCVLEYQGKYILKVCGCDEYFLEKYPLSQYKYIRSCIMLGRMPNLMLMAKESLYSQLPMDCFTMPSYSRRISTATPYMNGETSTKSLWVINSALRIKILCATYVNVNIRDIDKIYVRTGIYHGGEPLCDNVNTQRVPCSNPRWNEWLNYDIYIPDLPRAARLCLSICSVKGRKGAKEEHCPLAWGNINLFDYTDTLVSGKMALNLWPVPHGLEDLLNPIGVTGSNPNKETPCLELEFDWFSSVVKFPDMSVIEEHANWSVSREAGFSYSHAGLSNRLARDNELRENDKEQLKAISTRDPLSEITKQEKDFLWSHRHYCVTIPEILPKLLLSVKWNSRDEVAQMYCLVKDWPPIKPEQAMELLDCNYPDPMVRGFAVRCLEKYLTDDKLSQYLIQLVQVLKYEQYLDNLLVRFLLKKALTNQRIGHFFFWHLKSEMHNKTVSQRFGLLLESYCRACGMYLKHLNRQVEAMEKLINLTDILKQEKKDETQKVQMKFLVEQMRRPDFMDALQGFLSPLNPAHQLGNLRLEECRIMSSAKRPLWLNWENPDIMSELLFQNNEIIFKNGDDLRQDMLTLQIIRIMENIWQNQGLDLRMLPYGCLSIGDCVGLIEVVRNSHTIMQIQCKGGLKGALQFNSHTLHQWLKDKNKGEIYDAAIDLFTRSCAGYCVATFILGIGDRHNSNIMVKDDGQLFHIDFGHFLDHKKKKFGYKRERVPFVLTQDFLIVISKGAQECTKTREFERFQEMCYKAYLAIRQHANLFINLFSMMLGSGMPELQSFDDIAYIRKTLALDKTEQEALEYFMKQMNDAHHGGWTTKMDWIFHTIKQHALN", "T1 sequence (P27986 whole entry partner)": "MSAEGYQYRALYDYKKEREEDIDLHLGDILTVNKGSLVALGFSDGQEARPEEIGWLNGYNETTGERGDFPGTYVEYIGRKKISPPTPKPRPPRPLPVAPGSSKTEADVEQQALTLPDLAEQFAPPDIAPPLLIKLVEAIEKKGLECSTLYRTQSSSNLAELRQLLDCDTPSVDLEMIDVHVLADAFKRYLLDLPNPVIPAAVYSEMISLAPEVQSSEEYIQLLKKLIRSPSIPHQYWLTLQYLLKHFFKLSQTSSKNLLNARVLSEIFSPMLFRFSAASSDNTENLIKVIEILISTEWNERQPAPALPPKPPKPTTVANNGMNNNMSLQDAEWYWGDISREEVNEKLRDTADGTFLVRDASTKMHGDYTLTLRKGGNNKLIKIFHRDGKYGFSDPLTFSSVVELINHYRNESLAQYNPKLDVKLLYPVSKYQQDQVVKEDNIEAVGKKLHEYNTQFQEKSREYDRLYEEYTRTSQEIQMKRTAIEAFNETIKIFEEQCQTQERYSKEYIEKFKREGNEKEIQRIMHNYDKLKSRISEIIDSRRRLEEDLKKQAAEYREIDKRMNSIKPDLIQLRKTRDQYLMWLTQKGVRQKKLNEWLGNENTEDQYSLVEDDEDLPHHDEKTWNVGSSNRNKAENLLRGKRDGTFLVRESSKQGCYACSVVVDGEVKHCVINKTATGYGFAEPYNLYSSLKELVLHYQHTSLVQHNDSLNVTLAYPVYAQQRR", "assay": "ADP-Glo catalytic activity, oncogenic mutant E545K", "type": "biochemical", "procedure": "Expression and purification of wild-type p110α (Cambridge MRC Laboratory for Molecular Biology (LMB-MRC) plasmid number OP831) in a complex with full-length p85α (LMB-MRC plasmid OP809) was performed as described. The oncogenic mutants G106V (LMB-MRC plasmid JB35), N345K (LMB-MRC plasmid OP661) and E545K (LMB-MRC plasmid OP663) were also purified using this protocol. Briefly, 10 litres of Spodoptera frugiperda (Sf9) cell culture at a density of 1.0 x 10^6 cells/ml were co-infected with a p85α-encoding virus [LMB-MRC plasmid OP809]. and a virus encoding p110α with an N-terminal 6xHis tag followed by a tobacco etch virus (TEV) protease site [LMB-MRC plasmid OP831]. After a 48 h infection at 27°C, cells were harvested and washed with PBS. […]\nFor characterisation of the effects of 1938 on in vitro PI3K enzymology, all reactions were performed at room temperature with 384 white-polystyrene plates (Corning #3574). […] Data was expressed as velocity (nmol of ADP generated/nmol of enzyme/sec). […] Luminescence was read using a PHERAstar® plate reader with software version 5.41, and analyses were performed using GraphPad Prism 8/9."}, "[2]": {"system": "PI3Kα-KO MEFs", "assay": "CellTiter-Glo cell assay, PI3Kα-KO MEFs", "type": "cell-based, mouse", "conditions": "24h", "procedure": "MEFs were seeded at 5000 cells per well in 96-well plates in DMEM supplemented with 10% FBS and 1% P/S, and allowed to attach overnight. The next day, cells were serum starved for 4 h prior to compound treatment in fresh serum-free DMEM. Compounds solubilised in DMSO were diluted 1:2 in a 12-point concentration response curve in DMSO. Intermediate plates were prepared by transferring 4 μl of compounds in DMSO into 96 μl of serum-free DMEM media. This was then used to treat cell plates by transferring 12.5 μl of solution from the intermediate plate into 87.5 μl of serum-free DMEM in the cell plates. […] Cell plates were incubated for 24 h, 48 h or 72 h at 37°C, 5% CO2, followed by determination of cell survival using the CellTiter-Glo® reagent according to manufacturer’s instructions (Promega #G7571). Endpoint luminescence was measured using CLARIOstar (BMG). Compound data were analyzed using GraphPad Prism 8."}}}
{"smiles": "CCN1CCN(c2ccc(Nc3cc(Nc4cccc5c4N(C(C)=O)CC5)ccn3)cc2)CC1", "note": "[Compound 1938]", "values": [{"measurement": "activation of E545K mutant", "setting": "[1]", "result": "could be further activated by 1938"}, {"measurement": "concentrations with a decrease in ATP levels (PI3Kα-independent effects)", "setting": "[2]", "result": "> 7.5", "unit": "µM"}]}
